In patent publication US7056713B1, “Urate oxidase” (Duke University, priority 1998, dated 2006):

Legend:
[1] = compared with uric acid; background statement; cited from earlier work
[2] = target: T1, Aspergillus flavus uricase, clinical preparation (unmodified fungal enzyme) (Aspergillus flavus, UniProt Q00511); experiment: Kinetic comparison of A. flavus uricase clinical preparation with PEG-PBC uricase; type: biochemical; conditions: pH 8.6 in borate buffer; versus PEG-PBC uricase
T1 sequence (Q00511 2-302 limits assumed): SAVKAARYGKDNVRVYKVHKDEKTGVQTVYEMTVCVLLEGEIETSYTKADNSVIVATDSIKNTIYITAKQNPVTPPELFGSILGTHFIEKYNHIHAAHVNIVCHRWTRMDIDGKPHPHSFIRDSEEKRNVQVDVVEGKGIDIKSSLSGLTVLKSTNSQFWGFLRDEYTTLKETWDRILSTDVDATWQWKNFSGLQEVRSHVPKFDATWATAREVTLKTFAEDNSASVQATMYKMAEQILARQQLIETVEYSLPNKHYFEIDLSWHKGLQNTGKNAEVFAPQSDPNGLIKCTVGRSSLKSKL
Protocol: (§1) In this PEGylation reaction all of the uricase subunits were modified (FIG. 1, lane 7). In studies not shown, the PEGylated enzyme had similar kinetic properties to unmodified PBC uricase (KM 10–20 μM). […] The PEGylated enzyme could also be lyophilized and then reconstituted in PBS, pH 7.2, with minimal loss of activity. In other experiments, we compared the activities of this preparation of PEG-PBC uricase with the A. flavus uricase clinical preparation. […] However, in PBS, pH 7.2, the PEG-PBC and unmodified fungal enzymes differed in uricase activity by <2 fold.

[3] = system: PEGylated recombinant pig-baboon chimeric uricase (PEG-PBC uricase; PBC uricase SEQ ID NO:2); experiment: KM of PEGylated recombinant PBC uricase (studies not shown); type: biochemical, pig-baboon chimera; conditions: similar kinetic properties to unmodified
Protocol: 100 mg of concentrated Sepahacryl S-200 PBC uricase (5 mg/ml, 2.9 μmol enzyme; 84.1 μmol lysine) in 0.1 M Na2CO3, pH 10.2 was allowed to react with a 2-fold excess (mol of PEG:mol uricase lysines) of an activated form of PEG at 4° for 60 min. The PEGylated uricase was freed from any unreacted or hydrolyzed PEG by tangential flow diafiltration. In this step the reaction was diluted 1:10 in 0.1 M Na2CO3, pH 10.2 and diafiltered vs. 3.5 vol 0.1 M Na2CO3, pH 10.2, then vs. 3.5 vol 0.05 M sodium phosphate, 0.15 M NaCl, pH 7.2. The filter-sterilized enzyme was stable at 4° for at least one month.
In this PEGylation reaction all of the uricase subunits were modified (FIG. 1, lane 7). In studies not shown, the PEGylated enzyme had similar kinetic properties to unmodified PBC uricase (KM 10–20 μM). Importantly, the modified enzyme was much more soluble than the unmodified enzyme at physiologic pH (>5 mg/ml in PBS vs. <1 mg/ml). The PEGylated enzyme could also be lyophilized and then reconstituted in PBS, pH 7.2, with minimal loss of activity. In other experiments, we compared the activities of this preparation of PEG-PBC uricase with the A. flavus uricase clinical preparation. […] However, in PBS, pH 7.2, the PEG-PBC and unmodified fungal enzymes differed in uricase activity by <2 fold.

[4] = system: recombinant pig-baboon chimeric uricase (PBC uricase; aa 1–225 of porcine uricase (SEQ ID NO:7) and aa 226–304 of baboon uricase (SEQ ID NO:6)), unmodified …; experiment: KM of unmodified recombinant PBC uricase (studies not shown); type: biochemical, pig-baboon chimera
Protocol: as §1

[5] = human, in vivo; cited from earlier work

Q: For `NC(=O)NC1NC(=O)NC1=O` (stereo not shown) [allantoin], which “solubility relative to uric acid (times more soluble)” value [1] is on record?
A: 80–100 times

Q: What does the source list for `O=c1[nH]c(=O)c2[nH]c(=O)[nH]c2[nH]1` [uric acid]?
A: KM, fold higher than PEG-PBC uricase [2]: 2 fold; Vmax, fold higher than PEG-PBC uricase [2]: 10–14 fold; Km [3]: 10 to 20 µM; Km [4]: 10 to 20 µM

Q: For `Oc1ncnc2[nH]ncc12` [allopurinol], which “patients who develop allergic reactions” value [5] is on record?
A: ~2%

Q: And the severe hypersensitivity syndrome [5]?
A: ~0.4%
